From patent US5556744A, “Methods and compositions for diagnosing and treating certain HIV infected patients” (The Trustees of the University of Pennsylvania, priority 1994, dated 1996)

Tested on: maternal sera (antibodies)
Assay: ELISA peptide-binding of maternal sera (Example 6)
Set-up: species or system human
Conditions: for Number of Non-Transmitters which bound to peptide / Percent of Non-Transmitters which bound to peptide: N = 12; for Number of Transmitters which bound to peptide / Percent of Transmitters which bound to peptide: N = 4
From the text: A total of 86 maternal sera samples obtained from patients of the Hospital of the University of Pennsylvania during the third trimester of pregnancy were used in this study 58 (67%) were non-transmitters and 28 (33%) were transmitters. This is approximately consistent with the national average (i.e. a rate of transmission between 25-30%). Transmission status was based upon serological or molecular diagnosis of children (at an age of greater than 15 months) born to these mothers. Because of the constraints on the volume of serum available for many of these samples, not all sera were analyzed with all the peptides. However, each sera sample was run with at least 40 peptides.
These peptides are of an average length of 16 amino acids and covered the entire external as well as the transmembrane glycoprotein of HIV-1. Peptide binding was analyzed by ELISA essentially as described in Example 3.
The results of one study, using some of the peptides identified above among others, is provided in Table 12, which illustrates the number and percent of non-transmitters which bound to the tested peptide. The percentage designation refers to the percentage of sera samples which bound to a particular peptide. A value of greater than 0% means that at least one of the samples bound to the particular peptides.

Substance | Number of Non-Transmitters which bound to peptide | Percent of Non-Transmitters which bound to peptide | Number of Transmitters which bound to peptide | Percent of Transmitters which bound to peptide | Correlation of peptide binding with non-transmitters (in words) (Example 6) | Fold binding, non-transmitters vs transmitters (Example 6) | Percent of Non-Transmitters which bound to peptide (listed as 1/SP10 IIIB)
41-21: gp41 peptide, amino acids 661-683, HIV strain IIIB, SEQ ID NO: 152 (LELDKWASLWNWFNITNWLWYIK) [Peptide 41-21] | 0 | 0% | 0 | 0% |  |  | 
41-22: gp41 peptide, amino acids 702-720, HIV strain BH10, SEQ ID NO: 155 [Peptide 41-22] | 0 | 0% | 0 | 0% |  |  | 
105: gp120 peptide, amino acids 286-300, SEQ ID NO:112 (VQLNTSVEINCTRPN) [Peptide 105] | 0 | 0% | 0 | 0% |  |  | 
124: gp41 peptide, amino acids 646-660, SEQ ID NO:123 (IEESQNQQEKNEQEL) [Peptide 124] | 0 | 0% | 0 | 0% |  |  | 
5099: gp41 peptide, amino acids 512-543, HIV strain IIIB, SEQ ID NO: 162 (AYGIGALFLGFLGAAGSTMGAASMTLTVQARC) [Peptide 5099] | 1 | 83% | 0 | 0% |  |  | 
A405: gp120 peptide, amino acids 405-423, HIV strain Z3, SEQ ID NO: 130 (TGNITLPCRIKQVVRTWQG) [Peptide A405] | 1 | 8.3% | 0 | 0% |  |  | 
A487: gp120 peptide, amino acids 481-503, HIV strain IIIB, SEQ ID NO: 132 (ELYKYKVVKIEPLGVAPTKAKRR) [Peptide A487] | 1 | 8.3% | 0 | 0% |  |  | 
A524: gp41 peptide, amino acids 523-530, HIV strain MN, SEQ ID NO: 163 (FLGFLGAAGST) [Peptide A524] | 0 | 0% | 0 | 0% |  |  | 
A581: gp41 peptide, amino acids 576-592, SEQ ID NO:120 (LQARILAVERYLKDQQL) [Peptide A581] | 2 | 16.7% | 0 | 0% |  |  | 
A604 (IIIB): Peptide A604 (IIIB), Sequence ID No. 193 (CTTAVPWNASWSNKS) | 2 | 16.7% | 0 | 0% |  |  | 
A620: gp41 peptide, amino acids 615-627, HIV strain IIIB, SEQ ID NO: 172 (SNKSLEQIWNNMT) [Peptide A620] | 1 | 8.3% | 0 | 0% |  |  | 
A733: gp41 peptide, amino acids 728-745, HIV strain IIIB, SEQ ID NO: 174 (DRPEGIEEEGGERDRDRS) [Peptide A733] | 1 | 8.3% | 0 | 0% |  |  | 
A824: gp41 peptide, amino acids 824-831, HIV strain IIIB, SEQ ID NO: 175 (EGTDRVIE) [Peptide A824] | 0 | 0% | 0 | 0% |  |  | 
A6938: gp120 peptide, amino acids 200-217, HIV strain IIIB, SEQ ID NO: 135 (VITQACPKVSFEPIPIHY) [Peptide A6938] | 0 | 0% | 0 | 0% |  |  | 
A6939: gp120 peptide, amino acids 210-227, SEQ ID NO:108 (FEPIPIHYCAPAGFAILK) [Peptide A6939] | 0 | 0% | 0 | 0% |  |  | 
BS-1: gp120 peptide, amino acids 319-329, SEQ ID NO:114 (TIGKIGNMRQA) | 0 | 0% | 0 | 0% |  |  | 
BS-2: gp41 peptide, amino acids 625-634, HIV strain IIIB, SEQ ID NO: 176 (NMTWMEWDRE) | 0 | 0% | 0 | 0% |  |  | 
C21E: gp120 peptide, amino acids 252-272, HIV strain MN, SEQ ID NO: 147 (CTHGIRPVVSTQLLLNGSLAE) [Peptide C21E] | 0 | 0% | 0 | 0% |  |  | 
CNNKTFNGTGFCTNVSTVQ (CNNKTFNGTGPCTNVSTVQ) [Peptide C19Q] | 4 |  | 0 | 0% |  |  | 
DC419 (IIIB): Peptide DC419 (IIIB), Sequence ID No. 191 (TGDIITLPCRIKQIINRWQV) | 0 | 0% | 0 | 0% |  |  | 
KQIINMWQEVGKAMYA/CTRPNNNTRKSIRIQRGPG (KQIINMWQEVGKAMYACTRPNNNTRKSIRIQRGPG) [1/SP10IIIB] | 8 | 66.7% | 1 | 25% | selectively correlate with non-transmitters | at least two fold greater | greater than 50%
RG-1: gp41 peptide, amino acids 510-516, HIV strain IIIB, SEQ ID NO: 177 (KRAVGIG) | 3 | 25% | 1 | 25% |  |  | 
RG-2: gp41 peptide, amino acids 678-697, HIV strain IIIB, SEQ ID NO: 178 (WLWYIKLFIMIVGGLVGLRI) | 0 | 0% | 0 | 0% |  |  | 
S19C: Peptide S19C, Sequence ID No. 196; described in the January 1991 Catalog (STQLLLNGSLAEEEVVIR) | 0 | 0% | 0 | 0% |  |  | 
T19V: Peptide T19V, Sequence ID No. 195; described in the January 1991 Catalog (TGPCTNVSTVQCTHGIRPV) | 3 | 25% | 0 | 0% |  |  | 
